According to patent US20230167073A1 (Teijin Pharma Limited, priority 2020, published 2023):

The compounds below were run against T1, Human TRPC6 (Homo sapiens, UniProt Q9Y210) (assay: Evaluation of TRPC6 channel inhibitory activity (1), FLIPR Calcium 5 Assay Kit, OAG stimulation (Compound Nos. 1-1293)). Settings: not given.
T1 construct: expressed in transfected cells
T1 sequence (Q9Y210 1-931): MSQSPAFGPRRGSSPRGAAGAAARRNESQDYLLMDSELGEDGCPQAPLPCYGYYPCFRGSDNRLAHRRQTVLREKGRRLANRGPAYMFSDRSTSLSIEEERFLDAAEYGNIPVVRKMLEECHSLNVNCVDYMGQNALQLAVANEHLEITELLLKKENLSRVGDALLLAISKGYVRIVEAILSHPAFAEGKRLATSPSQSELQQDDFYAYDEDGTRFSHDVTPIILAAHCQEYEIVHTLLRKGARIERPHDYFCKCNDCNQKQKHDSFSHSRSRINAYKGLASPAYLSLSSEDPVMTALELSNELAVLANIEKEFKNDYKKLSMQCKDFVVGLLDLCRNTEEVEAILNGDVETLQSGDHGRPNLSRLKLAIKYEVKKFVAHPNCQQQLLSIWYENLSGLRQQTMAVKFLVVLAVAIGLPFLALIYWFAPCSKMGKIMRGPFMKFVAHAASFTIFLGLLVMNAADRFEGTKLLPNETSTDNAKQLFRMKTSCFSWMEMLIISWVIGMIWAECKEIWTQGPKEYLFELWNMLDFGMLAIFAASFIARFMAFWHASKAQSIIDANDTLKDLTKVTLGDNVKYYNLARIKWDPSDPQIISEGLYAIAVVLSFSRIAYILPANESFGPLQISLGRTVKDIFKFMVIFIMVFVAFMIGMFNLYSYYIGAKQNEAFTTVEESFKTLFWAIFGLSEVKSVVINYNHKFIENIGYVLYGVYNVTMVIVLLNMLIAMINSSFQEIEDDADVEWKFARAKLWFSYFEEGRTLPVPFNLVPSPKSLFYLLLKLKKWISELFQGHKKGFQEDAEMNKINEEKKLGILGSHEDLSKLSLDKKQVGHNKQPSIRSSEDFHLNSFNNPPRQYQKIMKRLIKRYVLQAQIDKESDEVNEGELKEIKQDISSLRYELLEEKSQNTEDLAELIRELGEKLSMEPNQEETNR
Assay type: cell-based
Summary of the method: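 TRPC6 (human) stable cells, 24 h culture; Ca5 no-wash dye + probenecid 30 min; cpd 20 min; OAG 30 μM final; ΔF (pre-cpd min to post-OAG max); 0%/100% = no cpd / no cpd + no OAG; 4PL → pIC50, binned +/++/+++.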

SMILES | IC50 [nM]
Cc1cc(Oc2cc(C#N)ccc2-c2ncc(CCN)cn2)cc(N2C3CCC2COC3)n1 [compound 445, 4-[5-(2-aminoethyl)pyrimidin-2-yl]-3-[2-methyl-6-(3-oxa-8-azabicyclo[3.2.1]octan-8-yl)pyridin-4-yl]oxybenzonitrile] | < 10

Same assay, conditions: Human TRPC6 stably-expressing cells, OAG 30 μM, FLIPR Calcium 5 Assay Kit; read-out: Inhibitory activity (pIC50 class) (converted)

SMILES | IC50 [nM]
Cn1nc(-c2nccs2)cc1Oc1cc(C#N)ccc1-c1ncc(CN)cn1 [compound 592, 4-[5-(aminomethyl)pyrimidin-2-yl]-3-[2-methyl-5-(1,3-thiazol-2-yl)pyrazol-3-yl]oxybenzonitrile] | < 10
CCc1cc(Oc2cc(C#N)ccc2-c2ccc(CN)cn2)n(C)n1 [compound 326, 4-[5-(aminomethyl)pyridin-2-yl]-3-(5-ethyl-2-methylpyrazol-3-yl)oxybenzonitrile] | < 10
Cc1cc(Oc2cc(C#N)ccc2-c2ccc(CCN)nc2)cc(N2CCOCC2)n1 [Compound 172, 4-[6-(2-aminoethyl)pyridin-3-yl]-3-(2-methyl-6-morpholin-4-ylpyridin-4-yl)oxybenzonitrile] | < 10
Cc1cc(Oc2cc(C#N)ccc2-c2ccn(CCN)c(=O)c2)cc(N2CCOCC2)n1 [compound 566, 4-[1-(2-aminoethyl)-2-oxopyridin-4-yl]-3-(2-methyl-6-morpholin-4-ylpyridin-4-yl)oxybenzonitrile] | 10 to 1000
CCC(OC)c1cn(Cc2cc(C#N)ccc2-c2ncc(CCN)cn2)c(C)n1 (centres unmarked) [compound 1142, 4-[5-(2-aminoethyl)pyrimidin-2-yl]-3-[[4-(1-methoxypropyl)-2-methylimidazol-1-yl]methyl]benzonitrile] | 10 to 1000
Cc1nc(OCC2CCCC2)cc(Oc2cc(C#N)ccc2-c2ccc(CCN)cc2)n1 [Compound 44, 4-[4-(2-aminoethyl)phenyl]-3-[6-(cyclopentylmethoxy)-2-methylpyrimidin-4-yl]oxybenzonitrile] | > 1000
CCc1cc(Oc2cc(C#N)ccc2-n2cc(CC(N)C(=O)O)c3ccccc32)n(C)n1 (centres unmarked) [compound 460, 2-amino-3-[1-[4-cyano-2-(5-ethyl-2-methylpyrazol-3-yl)oxyphenyl]indol-3-yl]propanoic acid] | > 1000
N#Cc1ccc(-c2ncc(CN)cn2)c(Oc2nnc(N3CCCC3)s2)c1 [compound 725, 4-[5-(aminomethyl)pyrimidin-2-yl]-3-[(5-pyrrolidin-1-yl-1,3,4-thiadiazol-2-yl)oxy]benzonitrile] | > 1000
Cc1cc(Oc2cc(C#N)ccc2-c2ncc(CCN)cn2)n(C)n1 [compound 305, 4-[5-(2-aminoethyl)pyrimidin-2-yl]-3-(2,5-dimethylpyrazol-3-yl)oxybenzonitrile] | 10 to 1000
Cn1nc(N2CCOCC2)cc1C(=O)c1cc(C#N)ccc1-c1ncc(CN)cn1 [Compound No. 1028, 4-[5-(Aminomethyl)pyrimidin-2-yl]-3-(2-methyl-5-morpholin-4-ylpyrazole-3-carbonyl)benzonitrile] | < 10
N#Cc1ccc(-c2ccc(CCN)cc2)c(Oc2cnnc(O[C@H]3CCC[C@@H]3O)c2)c1 [Compound 124, 4-[4-(2-aminoethyl)phenyl]-3[6-[(1S,2S)-2-hydroxycyclopentyl]oxypyridazin-4-yl]oxybenzonitrile] | 10 to 1000
Cc1nc(Oc2cc(C#N)ccc2-n2cc(N3CCCNCC3=O)cn2)cc(C2CCCC2)n1 [Compound 209, 3-(6-cyclopentyl-2-methylpyrimidin-4-yl)oxy-4-[4-(2-oxo-1,4-diazepan-1-yl)pyrazol-1-yl]benzonitrile] | > 1000
CC(C)OCCN(C)c1cc(Oc2cc(C#N)ccc2-c2ncc(CCN)cn2)n(C)n1 [compound 863, 4-[5-(2-aminoethyl)pyrimidin-2-yl]-3-[2-methyl-5-[methyl(2-propan-2-yloxyethyl)amino]pyrazol-3-yl]oxybenzonitrile] | > 1000
Cn1nc(C2CCOCC2)cc1Oc1cc(C#N)ccc1-c1ncc(CCN)cn1 [Compound 273, 4-[5-(2-aminoethyl)pyrimidin-2-yl]-3-[2-methyl-5-(oxan-4-yl)pyrazol-3-yl]oxybenzonitrile] | < 10
Cn1nc(-c2ccccc2)cc1Oc1cc(C#N)ccc1-c1ccc(CCN)cn1 [Compound 175, 4-[5-(2-aminoethyl)pyridin-2-yl]-3-(2-methyl-5-phenylpyrazol-3-yl)oxybenzonitrile] | < 10
N#Cc1ccc(-c2ncc(CCN)cn2)c(Oc2nnc(-c3ccncc3)s2)c1 [compound 730, 4-[5-(2-aminoethyl)pyrimidin-2-yl]-3-[(5-pyridin-4-yl-1,3,4-thiadiazol-2-yl)oxy]benzonitrile] | 10 to 1000

SMILES | IC50 [nM]
N#Cc1ccc(-c2ncc(CCN)cn2)c(C(=O)c2sc(N3CCOCC3)nc2C(F)(F)F)c1 [compound 1078, 4-[5-(2-aminoethyl)pyrimidin-2-yl]-3-[2-morpholin-4-yl-4-(trifluoromethyl)-1,3-thiazole-5-carbonyl]benzonitrile] | < 10
NCCc1cnc(-c2ccc(Cl)cc2Oc2cnn(CC(F)F)c2)nc1 [compound 1022, 2-[2-[4-chloro-2-[1-(2,2-difluoroethyl)pyrazol-4-yl]oxyphenyl]pyrimidin-5-yl]ethanamine] | > 1000
N#Cc1ccc(-c2ccc(CCN)cn2)c(Oc2cc(Cl)cnn2)c1 [Compound 88, 4-[5-(2-aminoethyl)pyridin-2-yl]-3-(5-chloropyridazin-3-yl)oxybenzonitrile] | > 1000
CCCCc1cc(Oc2cc(C#N)ccc2-c2ncc(C(O)CN)cn2)n(C)n1 (centres unmarked) [compound 337, 4-[5-(2-amino-1-hydroxyethyl)pyrimidin-2-yl]-3-(5-butyl-2-methylpyrazol-3-yl)oxybenzonitrile] | < 10
Cc1nc(Oc2cc(C#N)ccc2-c2ccc(CCN)nc2)cc(N2CCOCC2)n1 [Compound 74, 4-[6-(2-aminoethyl)pyridin-3-yl]-3-(2-methyl-6-morpholin-4-ylpyrimidin-4-yl)oxybenzonitrile] | 10 to 1000
Cc1cc(Oc2cc(C#N)ccc2-c2ccc(N3CC(N)CC3=O)cn2)cc(N2CCOCC2)n1 (centres unmarked) [compound 568, 4-[5-(4-amino-2-oxopyrrolidin-1-yl)pyridin-2-yl]-3-(2-methyl-6-morpholin-4-ylpyridin-4-yl)oxybenzonitrile] | > 1000
Cc1cc(Oc2cc(C#N)ccc2-c2ncc(CCN)cn2)cc(N2CCOC[C@@H]2C)n1 [compound 471, 4-[5-(2-aminoethyl)pyrimidin-2-yl]-3-[2-methyl-6-[(3S)-3-methylmorpholin-4-yl]pyridin-4-yl]oxybenzonitrile] | < 10
Cc1nn(C2CCCCC2)cc1Oc1cc(C#N)ccc1-c1ncc(CCN)cn1 [compound 864, 4-[5-(2-aminoethyl)pyrimidin-2-yl]-3-(1-cyclohexyl-3-methylpyrazol-4-yl)oxybenzonitrile] | 10 to 1000
Cn1nc(-c2ccccn2)cc1Cc1cc(C#N)ccc1-c1ccc(CCN)cn1 [compound 1215, 4-[5-(2-aminoethyl)pyridin-2-yl]-3-[(2-methyl-5-pyridin-2-ylpyrazol-3-yl)methyl]benzonitrile] | < 10
CN(C)C(=O)c1cc(Oc2cc(C#N)ccc2-c2ncc(CN)cn2)n(C)n1 [compound 956, 5-[2-[5-(aminomethyl)pyrimidin-2-yl]-5-cyanophenoxy]-N,N,1-trimethylpyrazole-3-carboxamide] | 10 to 1000
CC(C)Nc1cc(Sc2cc(C#N)ccc2-c2ncc(CN)cn2)cnn1 [compound 1272, 4-[5-(aminomethyl)pyrimidin-2-yl]-3-[6-(propan-2-ylamino)pyridazin-4-yl]sulfanylbenzonitrile] | 10 to 1000
Cc1scnc1-c1cc(Oc2cc(C#N)ccc2-c2ncc(CN)cn2)n(C)n1 [compound 963, 4-[5-(aminomethyl)pyrimidin-2-yl]-3-[2-methyl-5-(5-methyl-1,3-thiazol-4-yl)pyrazol-3-yl]oxybenzonitrile] | < 10
Cc1c(Oc2cc(C#N)ccc2-c2ncc(CN)cn2)cnn1CC(C)C [compound 805, 4-[5-(aminomethyl)pyrimidin-2-yl]-3-[5-methyl-1-(2-methylpropyl)pyrazol-4-yl]oxybenzonitrile] | 10 to 1000
Cn1nc(-c2ccccc2)cc1Oc1cc(Cl)ncc1-c1ccc(CCN)cn1 [compound 1290, 2-[6-[6-chloro-4-(2-methyl-5-phenylpyrazol-3-yl)oxypyridin-3-yl]pyridin-3-yl]ethanamine] | 10 to 1000
Cn1nc(C2CC2)cc1Oc1cc(C#N)ccc1-n1cc2c(n1)CCNC2 [compound 776, 3-(5-cyclopropyl-2-methylpyrazol-3-yl)oxy-4-(4,5,6,7-tetrahydropyrazolo[4,3-c]pyridin-2-yl)benzonitrile] | > 1000
